Among the data in patent US20070207946A1, “Dipeptidyl peptidase IV inhibitors and their uses for lowering blood pressure levels” (priority 2001, published 2007) are inhibition values, retold here.

The target of the experiment is T1, plasma DPIV activity (Rattus norvegicus, UniProt P14740).
T1 construct: from tissue; host or cells: plasma of Wistar rats
Put plainly: DPIV inhibiting activity after intravasal and oral administration to Wistar rats. It counts as in vivo. The note with it: rat. The procedure:
Male Wistar rats (Shoe: Wist(Sho)) with a body weight ranging between 250 and 350 g were purchased from Tierzucht Schönwalde (Schönwalde, Germany).
Animals were single-caged under conventional conditions with controlled temperature (22±2° C.) on a 12/12 hours light/dark cycle (light on at 06:00 AM). Standard pelleted chow (ssniff® Soest, Germany) and tap water acidified with HCl were allowed ad libitum.
After ≧one week of adaptation at the housing conditions, catheters were implanted into the carotid artery of Wistar rats under general anaesthesia (i.p. injection of 0.25 ml/kg b.w. Rompun® [2%], BayerVital, Germany and 0.5 ml/kg b.w. Ketamin 10, Atarost GmbH & Co., Twistringen, Germany). The animals were allowed to recover for one week. The catheters were flushed with heparin-saline (100 IU/ml) three times per week. In case of catheter dysfunction, a second catheter was inserted into the contra-lateral carotid artery of the respective rat. After one week of recovery from surgery, this animal was reintegrated into the study. In case of dysfunction of the second catheter, the animal was withdrawn from the study. A new animal was recruited and the experiments were continued in the planned sequence, beginning at least 7 days after catheter implantation.
After overnight fasting, 100 μl samples of heparinised arterial blood were collected at −30, −5, and 0 min. […] In the case of oral administration, an additional volume of 1 ml saline was injected into the arterial catheter. In the case of infra-arterial administration, the catheter was immediately flushed with 30 μl saline and an additional 1 ml of saline was given orally via the feeding tube.
All blood samples were collected into ice cooled Eppendorf tubes (Eppendorf-Netheler-Hinz, Hamburg, Germany) filled with 10 μl 1M sodium citrate buffer (pH 3.0) for plasma DPIV activity measurement. Eppendorf tubes were centrifuged immediately (12000 rpm for 2 min, Hettich Zentrifuge EBA 12, Tuttlingen; Germany): The plasma fractions were stored on ice until analysis or were frozen at −20° C. until analysis. All plasma samples were labelled with the following data:
The assay mixture for determination of plasma DPIV activity consisted of 80 μl reagent and 20 μl plasma sample. […] The DPIV activity was expressed in mU/ml.
All parameters were analysed in a descriptive manner including mean and SD.

Broadly, the inhibition is the share of the control response that was lost under treatment.

The structures appear in SMILES notation. Like-named read-outs stand apart in the source and are kept apart here.

T1 sequence (P14740 38-767 limits assumed): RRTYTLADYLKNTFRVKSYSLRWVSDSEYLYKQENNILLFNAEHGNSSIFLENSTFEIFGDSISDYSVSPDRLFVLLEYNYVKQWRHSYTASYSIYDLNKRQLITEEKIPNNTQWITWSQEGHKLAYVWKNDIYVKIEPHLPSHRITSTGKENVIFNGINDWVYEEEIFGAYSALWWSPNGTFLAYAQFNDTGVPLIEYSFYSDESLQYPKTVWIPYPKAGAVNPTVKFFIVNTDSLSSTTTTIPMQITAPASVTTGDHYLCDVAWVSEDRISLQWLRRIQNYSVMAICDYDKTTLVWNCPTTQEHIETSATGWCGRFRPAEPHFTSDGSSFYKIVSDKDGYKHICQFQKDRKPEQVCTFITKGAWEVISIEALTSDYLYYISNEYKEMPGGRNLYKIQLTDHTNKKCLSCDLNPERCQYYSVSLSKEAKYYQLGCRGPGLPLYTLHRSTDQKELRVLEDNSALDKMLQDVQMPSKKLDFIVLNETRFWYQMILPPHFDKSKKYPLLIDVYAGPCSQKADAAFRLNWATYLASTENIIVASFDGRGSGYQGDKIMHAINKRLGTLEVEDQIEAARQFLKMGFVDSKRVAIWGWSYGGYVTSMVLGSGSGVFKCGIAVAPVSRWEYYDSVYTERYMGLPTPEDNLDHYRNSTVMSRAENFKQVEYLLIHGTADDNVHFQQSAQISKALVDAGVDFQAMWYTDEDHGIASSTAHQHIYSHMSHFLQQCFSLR

As for `NC(=O)CCC(N)C(=O)N1CCCC1` (centres unmarked) [Gln-Pyrr, glutaminyl pyrrolidine], the inhibition at 100 mg/kg is 80% (iv, intra-vasal (intra-arterial) route, read-out: in vivo DPIV-inhibition at tmax, i.v.) and 67% (oral, read-out: in vivo DPIV-inhibition at tmax, p.o.).
